In ChEMBL document CHEMBL1201862, “PubChem BioAssay data set” (2004):
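Each compound was tested at five concentrations against cells in 96-well plates for 48 hours. Abbreviation: GI50, concentration required for 50% inhibition of growth.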 Active and inactive are the calls of the source. No stated cut-off is given here; in the data, active = GI50 up to about 1.1 µM and inactive = higher.

Columns and labels:
Experiment in all cases: NCI tumour cell line growth inhibition, 48 h
[1] = test system: MDA-N
[2] = test system: SK-MEL-28
[3] = test system: RPMI-8226
[4] = test system: PC-3
[5] = test system: HCT-15
[6] = test system: OVCAR-4
[7] = test system: MDA-MB-231
[8] = test system: Malme-3M
[9] = test system: EKVX
[10] = test system: SNB-19
[11] = test system: LOX IMVI
[12] = test system: K562
[13] = test system: MOLT-4
[14] = test system: NCI-H522
[15] = test system: TK-10
[16] = test system: UACC-62
[17] = test system: KM12
[18] = test system: CCRF-CEM
[19] = test system: COLO 205

Row | Structure (SMILES) | GI50 [1] | GI50 [2] | GI50 [3] | GI50 [4] | GI50 [5] [µM] | GI50 [6] | GI50 [7] | GI50 [8] | GI50 [9] | GI50 [10] | GI50 [11] | GI50 [12] | GI50 [13] | GI50 [14] | GI50 [15] | GI50 [16] | GI50 [17] | GI50 [18] | GI50 [19]
1 | O=c1c(-c2c(-c3ccccc3)oc3ccc(Cl)cc3c2=O)c(-c2ccccc2)oc2ccc(Cl)cc12 | > 100 µM (inactive) | > 100 µM (inactive) | > 100 µM (inactive) | > 100 µM (inactive) | > 100 | > 100 µM (inactive) | > 40.3 µM (inactive) | > 100 µM (inactive) | > 43.9 µM (inactive) | > 100 µM (inactive) | > 82.4 µM (inactive) | > 100 µM (inactive) | > 100 µM (inactive) | > 100 µM (inactive) | > 100 µM (inactive) | > 82.8 µM (inactive) | > 100 µM (inactive) | > 100 µM (inactive) | > 100 µM (inactive)
2 | O=C1C(N2CCN(c3ccccn3)CC2)=C(Cl)C(=O)c2ncccc21 | 1.66 µM (inactive) | 2.89 µM (inactive) | 0.353 µM (active) | > 9.16 µM (inactive) | 1.95 | 0.637 µM (active) | 3.63 µM (inactive) | 1.3 µM (inactive) | > 10 µM (inactive) | > 10 µM (inactive) | 2.22 µM (inactive) | 1.51 µM (inactive) | 1.83 µM (inactive) | 0.142 µM (active) | 3.24 µM (inactive) | 2.54 µM (inactive) | > 4.33 µM (inactive) | 1.32 µM (inactive) | 1.96 µM (inactive)
3 | CCOC(=O)CCC1(C(=O)O[C@@H]2C[C@H](C)CC[C@H]2C(C)C)CCCCC1=O (stereo not given in full) | 79.4 µM (inactive) | 74 µM (inactive) | 28.7 µM (inactive) | 39.3 µM (inactive) | 41.7 | 61.2 µM (inactive) | > 100 µM (inactive) | > 100 µM (inactive) | 41.3 µM (inactive) | > 100 µM (inactive) | > 100 µM (inactive) | 28.1 µM (inactive) | 29.2 µM (inactive) | 67.6 µM (inactive) | 56.4 µM (inactive) | 94.6 µM (inactive) | 50.4 µM (inactive) | 46.1 µM (inactive) | 65 µM (inactive)
4 | CCOC(=O)/C(C#N)=C1\c2c([nH]c(=S)[nH]c2=O)Oc2ccc3ccccc3c21 | 51.2 µM (inactive) | 1.46 µM (inactive) | 33 µM (inactive) | 34 µM (inactive) | 71.6 | > 100 µM (inactive) | 24.8 µM (inactive) | 68.7 µM (inactive) | 22.6 µM (inactive) | 0.0887 µM (active) | > 100 µM (inactive) | > 100 µM (inactive) | 11.2 µM (inactive) | 19 µM (inactive) | 39.9 µM (inactive) | 24.4 µM (inactive) | > 100 µM (inactive) | 1.55 µM (inactive) | 19.5 µM (inactive)
5 | CCCC[C@H]1CCN2C[C@@H](O)[C@@H](O)[C@H]2[C@@H]1O | > 100 µM (inactive) | > 100 µM (inactive) | > 100 µM (inactive) | > 100 µM (inactive) | > 100 | > 100 µM (inactive) | > 100 µM (inactive) | > 100 µM (inactive) | > 100 µM (inactive) | > 100 µM (inactive) | > 100 µM (inactive) | > 100 µM (inactive) | > 100 µM (inactive) | > 100 µM (inactive) | > 100 µM (inactive) | > 100 µM (inactive) | > 100 µM (inactive) | > 100 µM (inactive) | > 100 µM (inactive)
6 | O=C1CC(NC(=O)C(F)(F)F)c2c1csc2Br (stereo not given) | 33.5 µM (inactive) | > 100 µM (inactive) | 32.6 µM (inactive) | > 100 µM (inactive) | 88.5 | 58.5 µM (inactive) | > 100 µM (inactive) | 18.8 µM (inactive) | 14.8 µM (inactive) | > 100 µM (inactive) | 60.3 µM (inactive) | 48.3 µM (inactive) | 31.5 µM (inactive) | 54.6 µM (inactive) | 4.91 µM (inactive) | > 100 µM (inactive) | 3.03 µM (inactive) | 33.6 µM (inactive) | > 100 µM (inactive)
7 | COS(C)(=O)=O [METHANESULFONIC ACID METHYL ESTER] | > 2 µM (inactive) | > 2 µM (inactive) | > 2 µM (inactive) | > 2 µM (inactive) | > 2 | > 2 µM (inactive) | > 2 µM (inactive) | > 2 µM (inactive) | > 2 µM (inactive) | > 2 µM (inactive) | > 2 µM (inactive) | > 2 µM (inactive) | > 2 µM (inactive) | > 2 µM (inactive) | > 2 µM (inactive) | > 2 µM (inactive) | > 2 µM (inactive) | > 2 µM (inactive) | > 2 µM (inactive)
8 | C[C@@H](c1ccccc1)N1CN(C(=O)OCc2ccccc2)C(CO)C1=O (stereo not given in full) | > 100 µM (inactive) | > 100 µM (inactive) | 93.1 µM (inactive) | > 100 µM (inactive) | > 100 | > 100 µM (inactive) | 87.3 µM (inactive) | > 100 µM (inactive) | 71.1 µM (inactive) | > 100 µM (inactive) | > 100 µM (inactive) | 84.5 µM (inactive) | > 100 µM (inactive) | > 100 µM (inactive) | > 100 µM (inactive) | > 100 µM (inactive) | > 100 µM (inactive) | 67 µM (inactive) | > 100 µM (inactive)
9 | O=C1/C(=C/c2cccnc2)SC(=S)N1Cc1ccco1 | 2.33 µM (inactive) | 31 µM (inactive) | 2.2 µM (inactive) | 3.87 µM (inactive) | 3.72 | 8.81 µM (inactive) | 7.08 µM (inactive) | 6.73 µM (inactive) | 49.5 µM (inactive) | 32 µM (inactive) | 4.16 µM (inactive) | 14.6 µM (inactive) | 3.08 µM (inactive) | 1.43 µM (inactive) | 2.34 µM (inactive) | 8.97 µM (inactive) | 3.13 µM (inactive) | 3.21 µM (inactive) | 6.15 µM (inactive)
10 | CSC1=NN=C(SC)NN1 | 0.18 µM (active) | 0.186 µM (active) | 0.261 µM (active) | 0.166 µM (active) | 0.169 | 0.172 µM (active) | 0.22 µM (active) | 0.151 µM (active) | 0.186 µM (active) | 0.191 µM (active) | 0.15 µM (active) | 0.117 µM (active) | 0.027 µM (active) | 0.214 µM (active) | 0.213 µM (active) | 0.148 µM (active) | 0.192 µM (active) | 0.0243 µM (active) | 0.198 µM (active)
11 | C[C@@H]1OCC(O)C([C@H]2OC(c3ccccc3)=N[C@H]2CO)O1 (stereo not given in full) | > 100 µM (inactive) | > 100 µM (inactive) | > 100 µM (inactive) | > 100 µM (inactive) | > 100 | > 100 µM (inactive) | > 100 µM (inactive) | > 100 µM (inactive) | > 100 µM (inactive) | > 100 µM (inactive) | > 100 µM (inactive) | > 100 µM (inactive) | > 100 µM (inactive) | > 100 µM (inactive) | > 100 µM (inactive) | > 100 µM (inactive) | > 100 µM (inactive) | > 100 µM (inactive) | > 100 µM (inactive)
12 | CC[P+]1(c2ccccc2)[C@@H](C)CC[C@@H]1C | > 100 µM (inactive) | > 100 µM (inactive) | > 100 µM (inactive) | 61.9 µM (inactive) | > 100 | > 100 µM (inactive) | > 100 µM (inactive) | 97.1 µM (inactive) | > 100 µM (inactive) | > 100 µM (inactive) | > 100 µM (inactive) | 96.2 µM (inactive) | > 100 µM (inactive) | > 100 µM (inactive) | > 100 µM (inactive) | > 100 µM (inactive) | > 100 µM (inactive) | > 100 µM (inactive) | 85.1 µM (inactive)
13 | COC(=O)c1cc(NC(=O)Cc2c[nH]c3ccccc23)cn1C | > 100 µM (inactive) | 42 µM (inactive) | 21.3 µM (inactive) | 44.6 µM (inactive) | 62.5 | 40.4 µM (inactive) | 27.4 µM (inactive) | 57.7 µM (inactive) | > 100 µM (inactive) | 70 µM (inactive) | 58.3 µM (inactive) | 58.1 µM (inactive) | 43.2 µM (inactive) | 36.1 µM (inactive) | 87.9 µM (inactive) | 8.69 µM (inactive) | > 100 µM (inactive) | 45.3 µM (inactive) | 82 µM (inactive)
14 | CC(=O)c1cc2c(s1)C(=O)c1ccsc1C2=O | 0.0802 µM (active) | 0.185 µM (active) | 3.85 µM (inactive) | 0.458 µM (active) | 0.179 | 1.26 µM (inactive) | 0.327 µM (active) | 0.146 µM (active) | 1.87 µM (inactive) | 0.294 µM (active) | 0.0414 µM (active) | 0.407 µM (active) | 0.438 µM (active) | 0.16 µM (active) | 1.97 µM (inactive) | 0.255 µM (active) | 1.61 µM (inactive) | 0.335 µM (active) | 19.1 µM (inactive)
15 | CC(C)=CC1CC(C)C2(CCC3(C)CC4C(C(=O)CC4(C)O)/C(C=O)=C\CC32)O1 (stereo not given) | 0.112 µM (active) | 0.104 µM (active) | 0.0255 µM (active) | 0.038 µM (active) | 0.0243 | 0.0356 µM (active) | 0.0968 µM (active) | 0.131 µM (active) | 0.154 µM (active) | 0.177 µM (active) | 0.0582 µM (active) | 0.0614 µM (active) | < 0.0153 µM (active) | 0.028 µM (active) | 0.0235 µM (active) | 0.169 µM (active) | 0.102 µM (active) | 0.0179 µM (active) | 0.0596 µM (active)
